The source made the active and inactive calls. No cut-off for these calls is given here.
Assays:
[1] = target: T1, LgtC (Neisseria meningitidis) (UniProt Q93EK7); test: Inhibition of Neisseria meningitidis LgtC at 50 uM using UDP-Gal donor substrate incubated for 20 mins by malachite green reagent based colorimetric method relative to control
T1 sequence (whole entry): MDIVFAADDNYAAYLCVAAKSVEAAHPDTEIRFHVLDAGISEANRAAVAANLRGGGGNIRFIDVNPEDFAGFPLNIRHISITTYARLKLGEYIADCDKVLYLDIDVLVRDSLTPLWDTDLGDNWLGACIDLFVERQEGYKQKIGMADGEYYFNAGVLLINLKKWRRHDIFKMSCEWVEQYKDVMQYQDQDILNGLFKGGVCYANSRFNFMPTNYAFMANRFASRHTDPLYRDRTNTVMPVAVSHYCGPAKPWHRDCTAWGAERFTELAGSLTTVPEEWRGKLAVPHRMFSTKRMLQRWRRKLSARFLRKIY

LgtC = target: T2, LgtC (Neisseria meningitidis, UniProt Q93EK7); test: (§1) Inhibition of Neisseria meningitidis LgtC using UDP-Gal donor substrate incubated for 20 mins by malachite green reagent based colorimetric method
T2 sequence (Q93EK7 whole entry): T1 sequence (whole entry)

[2] = Effect on inorganic phosphate reaction with malachite green reagent at 1 mM after 20 mins by colorimetric method; format: functional
[3] = target: T1, LgtC (Neisseria meningitidis); test: as §1
[4] = target: Intestinal-type alkaline phosphatase (Bos taurus) (UniProt P19111); test: Inhibition of calf intestinal phosphatase up to 100 uM using UDP as substrate measured after 20 mins by malachite green reagent based colorimetric method
Intestinal-type alkaline phosphatase (Bos taurus), sequence (P19111 20-506 limits assumed): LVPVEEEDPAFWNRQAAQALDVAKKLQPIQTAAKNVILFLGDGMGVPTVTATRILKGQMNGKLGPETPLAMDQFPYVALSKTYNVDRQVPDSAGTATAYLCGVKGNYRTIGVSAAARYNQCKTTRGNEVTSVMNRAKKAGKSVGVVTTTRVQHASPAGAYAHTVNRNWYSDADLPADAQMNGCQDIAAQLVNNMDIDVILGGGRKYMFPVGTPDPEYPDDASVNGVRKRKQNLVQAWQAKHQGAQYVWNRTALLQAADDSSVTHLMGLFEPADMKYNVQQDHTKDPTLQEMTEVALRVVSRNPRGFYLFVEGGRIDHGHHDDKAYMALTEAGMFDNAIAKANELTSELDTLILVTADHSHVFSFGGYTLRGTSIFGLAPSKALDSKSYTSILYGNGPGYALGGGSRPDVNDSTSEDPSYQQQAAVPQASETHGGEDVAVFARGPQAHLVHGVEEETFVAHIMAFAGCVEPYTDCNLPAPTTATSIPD

[5] = Effect on inorganic phosphate reaction with malachite green reagent up to 100 uM after 20 mins by colorimetric method; format: functional
Pasteurella multocida = test: Inhibition of recombinant Pasteurella multocida alpha-(2,3)-sialyltransferase expressed in Escherichia coli BL21 up to 100 uM using CMP-Neu5Ac donor substrate incubated for 20 mins by malachite reagent based colorimetric method
[6] = target: T3, Galactoside alpha-(1,2)-fucosyltransferase 2 (Homo sapiens) (UniProt Q10981); test: Inhibition of recombinant human C-terminal His6-tagged FUT2 (Ile35 to His343 residues) expressed in HEK293 cells at 100 uM using GDP-Fuc donor substrate measured after 20 mins by malachite green reagent based colorimetric method; format: cell-based
T3 sequence (whole entry): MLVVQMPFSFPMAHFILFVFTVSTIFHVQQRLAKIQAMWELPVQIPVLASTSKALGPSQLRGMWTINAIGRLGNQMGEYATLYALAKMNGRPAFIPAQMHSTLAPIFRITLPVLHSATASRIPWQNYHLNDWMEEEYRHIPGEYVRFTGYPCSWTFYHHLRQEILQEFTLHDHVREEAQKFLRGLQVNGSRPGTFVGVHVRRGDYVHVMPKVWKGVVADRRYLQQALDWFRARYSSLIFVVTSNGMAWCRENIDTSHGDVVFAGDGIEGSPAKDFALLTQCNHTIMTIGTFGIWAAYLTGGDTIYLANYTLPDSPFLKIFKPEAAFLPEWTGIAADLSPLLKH

[7] = target: T1, LgtC (Neisseria meningitidis); test: Inhibition of Neisseria meningitidis LgtC at 100 uM using UDP-Gal donor substrate incubated for 20 mins by malachite green reagent based colorimetric method relative to control
[8] = target: T1, LgtC (Neisseria meningitidis); test: Inhibition of Neisseria meningitidis LgtC at 100 uM using UDP-Gal donor substrate incubated for 20 mins followed by 5 fold dilution by malachite green reagent based colorimetric method relative to control

inhibition [1]	Structure (SMILES)	other results
inactive	CC1=NN(c2ccccc2)C(=O)/C1=C\c1ccco1	
inactive	CC1=NN(c2ccccc2)C(=O)/C1=C\c1cccc(C)c1	
inactive	CC1=NN(c2ccccc2)C(=O)/C1=C\c1ccc(O)cc1	
> 10%	CC1=NN(c2ccccc2)C(=O)/C1=C\c1ccccc1Cl	IC50 (LgtC): 33 µM
10%	CC1=NN(c2ccccc2)C(=O)/C1=C\c1ccccc1O	
inactive	CC1=NN(c2ccccc2)C(=O)/C1=C\c1ccc(Cl)cc1	
inactive	CC1=NN(c2ccccc2)C(=O)/C1=C\c1cccc(O)c1	
inactive	CC1=NN(c2ccccc2)C(=O)/C1=C\c1ccc(C)cc1	
> 10%	CC1=NN(c2ccccc2)C(=O)/C1=C\c1ccccc1C	Activity [5]: inactive; inhibition (Pasteurella multocida): inactive; inhibition [3]: Dose-dependent effect; IC50 (LgtC): 30 µM; inhibition [6]: Active; inhibition [4]: inactive
inactive	CC1=NN(c2ccccc2)C(=O)/C1=C\c1ccncc1	

Further lines, the molecule ahead of its results:

Structure (SMILES)	inhibition [1]	other results
CC1=NN(c2ccccc2)C(=O)/C1=C\c1cccc(OCc2ccccc2)c1	inactive	
CC1=NN(c2ccccc2)C(=O)/C1=C\c1ccc(S(C)(=O)=O)cc1	inactive	
CC1=NN(c2ccccc2)C(=O)/C1=C\c1cccc([N+](=O)[O-])c1	inactive	
COc1cc(/C=C2\C(=O)N(c3cccc(C(=O)O)c3)N=C2C)cc(OC)c1O	inactive	
CC1=NN(c2ccccc2)C(=O)/C1=C\c1ccc(C#N)cc1	inactive	
CCOC(=O)c1cccc(N2N=C(C)/C(=C/C3CCN(C(=O)OC(C)(C)C)CC3)C2=O)c1	inactive	
CC1=NN(c2ccccc2)C(=O)/C1=C\c1cc(C(F)(F)F)ccc1C(F)(F)F	inactive	
CC(=O)O[C@H]1C[C@@H]2CC[C@@H]3[C@H](CC[C@@]4(C)[C@H]3C[C@H]([N+]3(C)CCCCC3)[C@@H]4OC(C)=O)[C@@]2(C)C[C@@H]1N1CCCCC1	34%	Activity [2]: Active; inhibition [3]: Dose-dependent effect; inhibition [4]: Active
CCOC(=O)c1cccc(N2N=C(C)/C(=C/c3ccncc3)C2=O)c1	inactive	
CC1=NN(c2ccccc2)C(=O)/C1=C\c1cccnc1	inactive	
CC1=NN(c2ccccc2)C(=O)/C1=C\c1ccccc1C(F)(F)F		inhibition [7]: 60%; inhibition [8]: 60%
CC(=O)O[C@H]1C[C@@H]2CC[C@@H]3[C@H](CC[C@@]4(C)[C@H]3C[C@H]([N+]3(C)CCCCC3)[C@@H]4OC(C)=O)[C@@]2(C)C[C@@H]1[N+]1(C)CCCCC1	38%	Activity [2]: Active; inhibition [3]: Dose-dependent effect; inhibition [4]: Active
COc1ccc2occ(/C=C3\C(=O)N(c4cccc(C(=O)O)c4)N=C3C)c(=O)c2c1	inactive	

From ChEMBL document CHEMBL4257475, “Identification of non-substrate-like glycosyltransferase inhibitors from library screening: pitfalls & hits” (Medchemcomm, 2018)
